Data taken from paper PMC3158675, “Effective inhibitors of the essential kinase PknB and their potential as anti-mycobacterial agents” (Tuberculosis (Edinburgh, Scotland), 2011).

Key:
Format in all cases: cell-based
M. tuberculosis [1] = test: Alamar blue MIC with cell wall weakening agent ethambutol at 0.5 MIC
M. smegmatis fbpA mutant = details: mutant compared with wild type
M. tuberculosis [2] = test: Alamar blue MIC with efflux pump inhibitors reserpine and verapamil; details: reserpine or verapamil at 20 or 40 μg/ml

SMILES | Improvement of MIC in M. smegmatis fbpA mutant (M. smegmatis fbpA mutant) | other results
CO[C@H]1/C=C/O[C@@]2(C)Oc3c(C)c(O)c4c(O)c(c(/C=N/N5CCN(C)CC5)c(O)c4c3C2=O)NC(=O)/C(C)=C\C=C\[C@H](C)[C@H](O)[C@@H](C)[C@@H](O)[C@@H](C)[C@H](OC(C)=O)[C@@H]1C [rifampicin] | – | Reduction of MIC in the presence of sub-inhibitory ethambutol (M. tuberculosis [1]): 4 fold
CN[C@H](CC(C)C)C(=O)N[C@H]1C(=O)N[C@@H](CC(N)=O)C(=O)N[C@H]2C(=O)N[C@H]3C(=O)N[C@H](C(=O)N[C@H](C(=O)O)c4cc(O)cc(O)c4-c4cc3ccc4O)[C@H](O)c3ccc(c(Cl)c3)Oc3cc2cc(c3O[C@@H]2O[C@H](CO)[C@@H](O)[C@H](O)[C@H]2O[C@H]2C[C@](C)(N)[C@H](O)[C@H](C)O2)Oc2ccc(cc2Cl)[C@H]1O [vancomycin] | 16 fold | –
CC[n+]1c(-c2ccccc2)c2cc(N)ccc2c2ccc(N)cc21 [ethidium bromide] | – | Decrease of MIC with efflux pump inhibitor (M. tuberculosis [2]): 4 fold
[H]/N=C(/N)N[C@H]1[C@H](O)[C@@H](O)[C@H](O[C@@H]2O[C@@H](C)[C@](O)(C=O)[C@H]2O[C@@H]2O[C@@H](CO)[C@H](O)[C@@H](O)[C@@H]2NC)[C@@H](N/C(N)=N\[H])[C@@H]1O [streptomycin] | not improved | –
CC[C@@H](CO)NCCN[C@@H](CC)CO [ethambutol] | not improved | –
CC[C@H]1OC(=O)[C@H](C)[C@@H](O[C@H]2C[C@@](C)(OC)[C@@H](O)[C@H](C)O2)[C@H](C)[C@@H](O[C@@H]2O[C@H](C)C[C@H](N(C)C)[C@H]2O)[C@](C)(O)C[C@@H](C)C(=O)[C@H](C)[C@@H](O)[C@]1(C)O [erythromycin] | 8 fold | –
